From patent publication US20020019378A1, “COMPOUNDS” (priority 1997, published 2002) come the findings set out here.

The target in data set [1] is T1, Human Glucocorticoid Receptor (Homo sapiens, UniProt P04150).
T1 construct: endogenous in cells; host or cells: HeLa cells stably transfected with an MMTV-LTR sPAP reporter
T1 sequence (P04150 1-777): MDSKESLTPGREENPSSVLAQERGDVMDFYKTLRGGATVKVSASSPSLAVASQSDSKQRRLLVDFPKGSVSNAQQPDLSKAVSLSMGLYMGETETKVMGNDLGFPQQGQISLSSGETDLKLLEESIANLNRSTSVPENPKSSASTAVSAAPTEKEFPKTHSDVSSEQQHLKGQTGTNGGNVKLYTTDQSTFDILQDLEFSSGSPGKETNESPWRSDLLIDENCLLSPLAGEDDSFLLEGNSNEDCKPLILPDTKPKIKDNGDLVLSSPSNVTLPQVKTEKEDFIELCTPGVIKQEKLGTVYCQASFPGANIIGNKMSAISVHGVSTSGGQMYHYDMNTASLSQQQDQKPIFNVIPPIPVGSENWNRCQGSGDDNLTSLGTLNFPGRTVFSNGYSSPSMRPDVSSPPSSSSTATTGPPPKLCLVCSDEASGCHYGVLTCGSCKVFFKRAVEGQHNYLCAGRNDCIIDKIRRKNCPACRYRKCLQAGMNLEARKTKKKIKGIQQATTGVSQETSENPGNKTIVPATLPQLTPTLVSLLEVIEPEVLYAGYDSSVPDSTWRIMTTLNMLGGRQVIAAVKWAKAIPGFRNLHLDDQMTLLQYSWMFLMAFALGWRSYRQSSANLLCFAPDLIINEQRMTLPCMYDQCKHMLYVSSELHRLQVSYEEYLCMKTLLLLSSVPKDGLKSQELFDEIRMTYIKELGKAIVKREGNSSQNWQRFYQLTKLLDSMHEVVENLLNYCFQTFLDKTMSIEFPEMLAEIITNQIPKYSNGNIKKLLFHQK
Description: Functional in vitro glucocorticoid activity assay: Hela cells stably transfected with sPAP reporter gene under MMTV LTR promoter. The data set is classed as cell-based. The note with it: 72 hours incubation, values given as 'less than (about)', read-out: EC50 (sPAP transcription, glucocorticoid activity). The text has this:
The functional assay used was a modification of the method described by T. S Berger et al, of J. of Steroid Biochem. Molec. Biol. 1992, 41 (3-8), 733-738, “Interaction of Glucocorticoid analogues with the Human Glucocorticoid Receptor”. Thus, Hela cells were stably transfected with a detectable reporter gene (secreted placental alkaline phosphatase, sPAP) under the control of a glucocorticoid response promoter (the LTR of the mouse mammary tumour virus, MMTV). Various concentrations of standard (dexamethasone) or compounds of the invention were incubated with transfected Hela cells for 72 hours. At the end of the incubation, substrate ([…]) for sPAP was added and the product measured by a spectrophotometric method. Increased absorbance reflected increased sPAP transcription and concentration-response lines were constructed such that EC50-values could be estimated.

The nature of data set [2]: Stability in human plasma test method. The data set is classed as in vitro ADME. The note with it: 37° C. Here is the method:
The stability of various of the compounds of the Examples in human plasma was tested using the following ‘stability in human plasma’ test method: 500 μl aliquots of human plasma in screw capped polypropylene tubes were preincubated at 37° C. in a waterbath for 5 minutes. The plasma samples were then spiked with 5 μl of test compound (nominally 5 mg/ml in DMSO). Aliquots (100 μl ) were removed immediately and after 5 minutes and mixed with an equal volume of acetonitrile. The samples were centrifuged and the supernatants were transferred to autosampler vials for HPLC and half-life analysis.
In the HPLC procedure, aliquots (20 μl) of all the supernatants were injected onto a Zorbax Rx C8 column (250×4.6mm; Hichrom). The column was maintained at 40° C. and eluted at a flow rate of 1.0 mL/min with a mobile phase of acetonitrile: 50 mM ammonium formate (65:35) adjusted to pH 4.2 with formic acid. Detection was by UV absorbance at 240 nm, and chromatographic peak areas for both parent and metabolite were measured
To determine the half-life, for each compound peak areas were plotted against time on a log-linear scale, and the half lives determined by extrapolation or interpolation of a straight line joining two points.

A further data set concerns the target human serum paraoxonase (Homo sapiens, UniProt P27169). As to the kind of experiment: Hydrolysis by human serum paraoxonase (enzymatic hydrolysis test method). The data set is classed as in vitro ADME. The note with it: 5% bovine serum albumin, 20 mM CaCl2, 37° C. The method, then: The compounds herein have relatively short half-lives in blood in vitro. A test method for determining the half-life of the compounds under defined enzymatic hydrolysis conditions in vitro is now described. The test method is believed to provide a suitable indicator as to effects in vivo. In the test method, the hydrolysis of test compounds by a lactonase enzyme is monitored using RP HPLC with UV detection.
The ‘enzymatic hydrolysis test method’ is as follows: Incubations are carried out in 1 ml volumes in an aqueous medium containing 5% bovine serum albumin in the presence of 20 mM CaCl2. The solutions are preincubated at 37° C. for 5 minutes before the addition of the test compound (5 μl of a 5 mg/ml solution in DMSO) and then lactonase enzyme (10 μl to the 1 ml incubations). Control incubations containing no enzyme are also included. The enzymatic hydrolysis is monitored by removal of aliquots and quenching the reaction by the addition of an equal volume of acetonitrile. The samples are vortex mixed, then centrifuged and the supernatants are transferred to autosampler vials for HPLC analysis.
In a suitable HPLC procedure, aliquots (20 μl) of the supernatants are injected onto a Zorbax Rx C8 column (250×4.6mm; Hichrom). The column is maintained at 40° C. and eluted at a flow rate of 1.0 mL/min with a mobile phase of acetonitrile: 50 mM ammonium formate (65:35) adjusted to pH 4.2 with formic acid. Detection is by UV absorbance at 240 nm, and chromatographic peak areas for both parent and metabolite are measured.
In a preferred aspect, the half-life of each compound may be determined by a method in which peak areas are plotted against time on a log-linear scale, and the half lives determined by extrapolation or interpolation of a straight line joining two points.
The above described ‘enzymatic hydrolysis test method’ employs lactonase enzyme. Suitable forms of lactonase enzyme include human serum paraoxonase or a recombinant form thereof, or purified lactonase, obtained from human plasma as described hereinafter. Purification of human serum paraoxonase is described by C E Furlong et al, Chem.Biol.Interactions, Vol 87, p35-48, (1993) and recombinant human serum paraoxonase is described in International Patent application No. WO 96/01322
The susceptibility to hydrolysis by human serum paraoxonase of certain of the compounds of the Examples was assessed using the test protocol of the ‘enzymatic hydrolysis test method’ described herein.

Data set [3] is described as follows: Stability in human lung S9. It counts as in vitro ADME. The note with it: human lung S9 diluted 1:1 with phosphate buffer pH 7.4, NADPH, 37° C. The method, then: The stability of the compound of Examples 4 and 6 in a model human lung environment was assessed using the following test protocol: Incubations were carried out, at 37° C., in 500 μL volumes of human lung S9 diluted 1:1 with 10 mM phosphate buffer pH 7.4 to which was added 50 μl of 30 mg/ml (Aq) NADPH. The reactions were started by the addition of 5 μl of test compound (nominally 5 mg/ml solution in DMSO). Aliquots (100 μl) were removed immediately and after 1 hour and mixed with an equal volume of acetonitrile to stop the reaction. Samples were centrifuged and the supernatants were transferred to autosampler vials for HPLC analysis and half-life analysis using methods identical to those described in the ‘stability in human plasma’ test protocol described above. Control incubations containing no lung S9 were also included.

Where only a bound is given, the exact number is not on record here.

Chain of human serum paraoxonase (P27169 whole entry): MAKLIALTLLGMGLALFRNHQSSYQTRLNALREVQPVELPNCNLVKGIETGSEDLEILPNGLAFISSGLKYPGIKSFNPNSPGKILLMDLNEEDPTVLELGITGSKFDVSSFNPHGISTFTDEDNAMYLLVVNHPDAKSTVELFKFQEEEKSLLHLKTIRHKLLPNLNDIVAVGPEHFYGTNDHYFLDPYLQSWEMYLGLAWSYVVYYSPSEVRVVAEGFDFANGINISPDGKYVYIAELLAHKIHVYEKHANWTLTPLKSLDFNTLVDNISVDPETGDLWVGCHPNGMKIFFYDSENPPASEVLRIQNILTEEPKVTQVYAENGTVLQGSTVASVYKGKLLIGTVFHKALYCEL

Take `CC12CCC(=O)C=C1C(F)CC1C3CC4OC(CSC5CCOC5=O)OC4(C(=O)CO)C3(C)CC(O)C12F` (stereo not drawn) [Example 4, 6α,9α-Difluoro-11β,21-dihydroxy-16α, 17α-[2-(2-oxo-tetrahydro-furan-3-yl)sulfanyl]ethylidenedioxy-pregn-4-ene-3,20-dione]: the EC50 in data set [1] is less than 250 nM. The half-life at 49.5 µg/mL in data set [2] was less than 10 min. Further, the “Hydrolysis by human serum paraoxonase” value on human serum paraoxonase is given as “hydrolysed”. Moreover, the half-life at 45 µg/mL in data set [3] is greater than 60 min.
As to `Nc1c(Cl)cc(C(O)CNCCCSC2CCOC2=O)cc1Cl.O=C(O)C(F)(F)F` (stereo not drawn) [Example 6, 3-[3-[2-(4-Amino-3,5-dichlorophenyl)-2-hydroxyethylamino]propylsulfanyl]-dihydro-furan-2-one trifluoroacetate], in data set [2], the half-life at 49.5 µg/mL was less than 10 min. Moreover, the half-life at 45 µg/mL in data set [3] was greater than 60 min.
